# Reference: patent US20230331715A1, “SPIRO[3.3]HEPTANE DERIVATIVES FOR THE TREATMENT AND PROPHYLAXIS OF HEPATITIS B VIRUS INFECTION” (priority 2020, published 2023)
# Like-named read-outs stand apart in the source and are kept apart here.
# How the values were obtained:
# Assay type in all cases: cell-based
# [1] = Cytotoxicity in PHH natural infection assay (Cell Counting Kit-8); conditions: human; HBV-infected PHH, CCK8, compound refreshed two times with 72-hour interval
# Procedure: (§1) Detailed procedures regarding primary human hepatocyte (PHH) HBV natural infection assay are described as below. One tube of frozen PHH (10 million cells) is thawed in 37° C. water bath and then transferred to 20 mL of PHH thawing medium (Sigma, InVitroGRO HT Medium, Cat. S03319) with gently mixing. The cells were then centrifuged at […] for 5 min, the supernatant was discarded and the tube was refilled with 25 mL of PHH plating medium (Sigma, InVitroGRO CP Medium, Cat. S03317). The tube was shaken very gently to re-suspend all cells, and then 50 µl of cells were transferred to each well 384-well collagen I coated plate with appropriate liquid handling equipment, e.g. Integra VIAFLO384 or Agilent Bravo. The cells were then cultured for 24 hours in a cell incubator. For HBV infection, after PHH attachment on the culture plate, the plating medium was removed and replenished with PHH culture medium containing HBV virus. The PHH culture medium was prepared with Dulbecco’s Modified Eagle Medium (DMEM)/F12 (1: 1 in volume ratio) containing 10% fetal bovine serum (Gibco, Cat. 10099141), 5 ng/mL human epidermal growth factor (Gibco, Cat.PHG0311L), 20 ng/mL dexamethasone (Sigma, Cat.D4902-100mg), 250 ng/mL human recombinant insulin (Gibco, Cat.41400045) and 100 U/mL penicillin. HBV virus at 200 genome equivalent (GE) per cell with 4% PEG8000 (Sigma, Cat.P1458) containing culture medium were added to the PHH culture medium for infection. The cells were then cultured for 24 hours in cell incubator. Then the cell culture supernatant was removed. The HBV-infected PHH were cultured with sandwich culture method with PHH culture medium containing 1% DMSO and 0.25 mg/mL matrix gel for 72 hours. The supernatant was then refreshed with PHH culture medium containing different concentrations of testing compounds for two times with 72-hour interval. At the end of treatment, the supernatant was collected for viral markers measurements, including HBsAg, HBeAg, HBV DNA and cytotoxicity. HBsAg and HBeAg were detected using alphalisa method using their specific antibodies. For HBV DNA detection, HBV DNA Quantitative Fluorescence Diagnostic Kit (Sansure Biotech Inc.) was used following the manufacture’s protocol. Cytotoxicity was determined using Cell Counting Kit-8 (CCK8, Dojindo Molecular Technologies, Inc.).
# HBsAg = assay: PHH HBV natural infection assay, HBsAg (alphalisa)
# Procedure: as §1
# (§2) The compounds of the present invention were tested for their capacity to inhibit HBsAg and HBeAg as described herein.
# HBeAg = assay: PHH HBV natural infection assay, HBeAg (alphalisa)
# Procedure: as §1, §2
# [2] = Hepatitis B virus, 72 h, read-out: HBsAg IC50, HBV-infected PHH, culture supernatant, compound refreshed two times with 72-hour interval, alphalisa
# [3] = Hepatitis B virus, 72 h, read-out: HBeAg IC50, HBV-infected PHH, culture supernatant, compound refreshed two times with 72-hour interval, alphalisa
# [4] = read-out: HBsAg IC50, HBV-infected PHH, culture supernatant, compound refreshed two times with 72-hour interval, alphalisa
# [5] = read-out: HBeAg IC50, HBV-infected PHH, culture supernatant, compound refreshed two times with 72-hour interval, alphalisa
Compound,CC50 at 144 h [1],IC50 (HBsAg; [2]),IC50 (HBeAg; [3]),IC50 (HBsAg; [4]),IC50 (HBeAg; [5])
"O=C(NC1CC2(C1)CC(c1nc3cc(Cl)ccc3s1)C2)c1ccc(S(=O)(=O)N2CCC2)o1 (stereo not drawn) [Example 20, 5-(azetidin-1-ylsulfonyl)-N-[6-(5-chloro-1,3-benzothiazol-2-yl)spiro[3.3]heptan-2-yl]furan-2-carboxamide]",> 10 µM,4.88 µM,4.06 µM,,
"COc1cc(C(=O)NC2CC3(C2)CC(c2nc4cc(Cl)ccc4s2)C3)ccn1 (stereo not drawn) [Example 42, N-[6-(5-chloro-1,3-benzothiazol-2-yl)spiro[3.3]heptan-2-yl]-2-methoxy-pyridine-4-carboxamide]",> 10 µM,3.12 µM,2.67 µM,,
"NC(=O)c1cc(C(=O)NC2CC3(C2)CC(c2nc4cc5c(cc4s2)OCO5)C3)ccn1 (stereo not drawn) [Example 12, N4-[6-([1,3]dioxolo[4,5-f][1,3]benzothiazol-6-yl)spiro[3.3]heptan-2-yl]pyridine-2,4-dicarboxamide]",23.3 µM,6.58 µM,6.53 µM,,
"CS(=N)(=O)c1cc(C(=O)NC2CC3(C2)CC(c2nc4cc(Cl)ccc4s2)C3)ccn1 (stereo not drawn) [Example 40, N-[6-(5-chloro-1,3-benzothiazol-2-yl)spiro[3.3]heptan-2-yl]-2-(methylsulfonimidoyl)pyridine-4-carboxamide]",> 10 µM,2.53 µM,2.41 µM,,
"O=C(CC1CCCS(=O)(=O)C1)NC1CC2(C1)CC(c1nc3cc(Cl)ccc3s1)C2 (stereo not drawn) [Example 30, N-[6-(5-chloro-1,3-benzothiazol-2-yl)spiro[3.3]heptan-2-yl]-2-(1,1-dioxothian-3-yl)acetamide]",> 10 µM,3.47 µM,3.47 µM,,
"O=C(NC1CC2(C1)CC(c1nc3cc(Cl)ccc3s1)C2)C1CCS(=O)(=O)C1 (stereo not drawn) [Example 26, N-[6-(5-chloro-1,3-benzothiazol-2-yl)spiro[3.3]heptan-2-yl]-1,1-dioxo-thiolane-3-carboxamide]",> 100 µM,1.99 µM,1.18 µM,,
"CC(C)(C)S(=O)(=O)c1cc(C(=O)NC2CC3(C2)CC(c2nc4cc(Cl)ccc4s2)C3)ccn1 (stereo not drawn) [Example 38, 2-tert-butylsulfonyl-N-[6-(5-chloro-1,3-benzothiazol-2-yl)spiro[3.3]heptan-2-yl]pyridine-4-carboxamide]",30.8 µM,1.95 µM,1.49 µM,,
"CS(=O)(=O)c1cc(C(=O)NC2CC3(C2)CC(c2nc4cc(Cl)ccc4s2)C3)ccn1 (stereo not drawn) [Example 36, N-[6-(5-chloro-1,3-benzothiazol-2-yl)spiro[3.3]heptan-2-yl]-2-methylsulfonyl-pyridine-4-carboxamide]",> 50 µM,1.08 µM,0.86 µM,,
"[H][C@]1(NC(=O)c2cc(C(N)=O)ncn2)C[C@]2(C1)C[C@]([H])(c1nc3cc(Cl)ccc3s1)C2 (single isomer, unassigned) [Example 56-b, (Ra)-N6-[6-(5-chloro-1,3-benzothiazol-2-yl)spiro[3.3]heptan-2-yl]pyrimidine-4,6-dicarboxamide]",> 10 µM,,,3.3 µM,2.27 µM
"CC(C)(c1ccc(C(=O)NC2CC3(C2)CC(c2nc4cc(Cl)ccc4s2)C3)o1)S(C)(=O)=O (stereo not drawn) [Example 17, N-[6-(5-chloro-1,3-benzothiazol-2-yl)spiro[3.3]heptan-2-yl]-5-(1-methyl-1-methylsulfonyl-ethyl)furan-2-carboxamide]",35.7 µM,2.11 µM,1.6 µM,,
"[H][C@]1(NC(=O)c2ccnc(C(N)=O)c2)C[C@]2(C1)C[C@]([H])(c1nc3cc(Cl)ccc3s1)C2 (single isomer, unassigned) [Example 53-b, (Ra)-N4-[6-(5-chloro-1,3-benzothiazol-2-yl)spiro[3.3]heptan-2-yl]pyridine-2,4-dicarboxamide]",> 10 µM,,,5.96 µM,5.25 µM
"O=C(NC1CC2(C1)CC(c1nc3cc(Cl)ccc3s1)C2)c1ccc(S(=O)(=O)NC2CC(F)(F)C2)o1 (stereo not drawn) [Example 23, N-[6-(5-chloro-1,3-benzothiazol-2-yl)spiro[3.3]heptan-2-yl]-5-[(3,3-difluorocyclobutyl)sulfamoyl]furan-2-carboxamide]",14.3 µM,1.25 µM,0.85 µM,,
"O=C(CC1CCCS1(=O)=O)NC1CC2(C1)CC(c1nc3cc(Cl)ccc3s1)C2 (stereo not drawn) [Example 29, N-[6-(5-chloro-1,3-benzothiazol-2-yl)spiro[3.3]heptan-2-yl]-2-(1,1-dioxothiolan-2-yl)acetamide]",> 10 µM,4.74 µM,3.59 µM,,
"NS(=O)(=O)c1cccc(C(=O)NC2CC3(C2)CC(c2nc4cc(Cl)ccc4s2)C3)c1 (stereo not drawn) [Example 2, N-[6-(5-chloro-1,3-benzothiazol-2-yl)spiro[3.3]heptan-2-yl]-3-sulfamoyl-benzamide]",> 10 µM,3.71 µM,3.33 µM,,
"O=C(NC1CC2(C1)CC(c1nc3cc(Cl)ccc3s1)C2)c1ccc(S(=O)(=O)NC2CCC2)o1 (stereo not drawn) [Example 22, N-[6-(5-chloro-1,3-benzothiazol-2-yl)spiro[3.3]heptan-2-yl]-5-(cyclobutylsulfamoyl)furan-2-carboxamide]",21.9 µM,1.39 µM,1 µM,,
"O=C(NC1CC2(C1)CC(c1nc3cc(Cl)ccc3s1)C2)c1cccc(C(F)(F)F)c1 (stereo not drawn) [Example 1, N-[6-(5-chloro-1,3-benzothiazol-2-yl)spiro[3.3]heptan-2-yl]-3-(trifluoromethyl)benzamide]",> 10 µM,6.55 µM,4.53 µM,,
"O=C(NC1CC2(C1)CC(c1nc3cc(Cl)ccc3s1)C2)c1ccnc(S(=O)(=O)CC2CC2)c1 (stereo not drawn) [Example 39, N-[6-(5-chloro-1,3-benzothiazol-2-yl)spiro[3.3]heptan-2-yl]-2-(cyclopropylmethylsulfonyl)pyridine-4-carboxamide]",> 10 µM,0.79 µM,0.34 µM,,
"O=C(NC1CC2(C1)CC(c1nc3cc(Cl)ccc3s1)C2)c1ccnc(C(F)(F)F)c1 (stereo not drawn) [Example 4, N-[6-(5-chloro-1,3-benzothiazol-2-yl)spiro[3.3]heptan-2-yl]-2-(trifluoromethyl)pyridine-4-carboxamide]",> 10 µM,5.05 µM,4.34 µM,,
"O=C(NC1CC2(C1)CC(c1nc3cc(Cl)ccc3s1)C2)c1ccnc(N2CCCC2)c1 (stereo not drawn) [Example 50, N-[6-(5-chloro-1,3-benzothiazol-2-yl)spiro[3.3]heptan-2-yl]-2-pyrrolidin-1-yl-pyridine-4-carboxamide]",> 10 µM,9.95 µM,9.63 µM,,
"O=C(NC1CC2(C1)CC(c1nc3cc(Cl)ccc3s1)C2)c1ccnc(N2CCOCC2)c1 (stereo not drawn) [Example 52, N-[6-(5-chloro-1,3-benzothiazol-2-yl)spiro[3.3]heptan-2-yl]-2-morpholino-pyridine-4-carboxamide]",> 10 µM,2.59 µM,2.79 µM,,
"CC(C)(c1cc(C(=O)NC2CC3(C2)CC(c2nc4cc(Cl)ccc4s2)C3)ccn1)S(C)(=O)=O (stereo not drawn) [Example 8, N-[6-(5-chloro-1,3-benzothiazol-2-yl)spiro[3.3]heptan-2-yl]-2-(1-methyl-1-methylsulfonylethyl)pyridine-4-carboxamide]",35.9 µM,1.89 µM,1.23 µM,,
"O=C(NC1CC2(C1)CC(c1nc3cc(Cl)ccc3s1)C2)c1ccc(C(F)(F)F)o1 (stereo not drawn) [Example 14, N-[6-(5-chloro-1,3-benzothiazol-2-yl)spiro[3.3]heptan-2-yl]-5-(trifluoromethyl)furan-2-carboxamide]",> 100 µM,2.48 µM,2.52 µM,,
"O=C(NC1CC2(C1)CC(c1nc3cc(Cl)ccc3s1)C2)c1ccc(C(O)C(F)(F)F)o1 (stereo not drawn) [Example 18, N-[6-(5-chloro-1,3-benzothiazol-2-yl)spiro[3.3]heptan-2-yl]-5-(2,2,2-trifluoro-1-hydroxyethyl)furan-2-carboxamide]",> 10 µM,5.52 µM,4.59 µM,,
